Test results taken from patent US7244462B2, “Amino acid derivative and sweetening agent” (Ajinomoto Co., Inc., priority 2003, dated 2007).
“And” between values parts separate entries of the source, which are not always exact repeats. Identical values can stand only once. Like-named read-outs stand apart in the source and are kept apart here. Peptide text beside a SMILES is read from it.

Legend:
[1] = Sensory test: degree of sweetness compared with sucrose (sugar) solution; conditions: for Degree of sweetness (multiplying power of sweetness): compared with a 4 to 5% sucrose solution
From the text: The derivative of the invention, i.e., the compound and the form of the salt thereof of the invention was proven to have strong sweetness with a quality of sweetness that is similar to sugar, as a result of a sensory test. For example, the degree of sweetness of 2-amino-4,5-dihydroxy-4-(3-indolylmethyl)pentanoic acid (mixture of the (2S,4S) isomer and (2R,4R) isomer at a ratio of 1:1) was about 1250 times as high as that of sugar, and the degree of sweetness of (2R,4R)-2-amino-4-hydroxy-4-ethylcarbamoyl-4-(3-indolylmethyl)butyric acid was about 1600 times as high as that of sugar. […] Structure and results of the sensory test on several synthesized amino acid derivatives (represented by the following formula (1)) are presented in Table 1.

[2] = Stability (half life) in aqueous acidic solution, citrate buffer pH 3, 70° C.; assay type: physicochemical; conditions: citrate buffer solution of pH=3, at 70° C.
[3] = (2S,4S) isomer derived from natural plant; literature report; cited from earlier work
[4] = compared with a 5% sugar solution

| half-life [2] [h] | SMILES | Degree of sweetness (multiplying power of sweetness) [1] | Degree of sweetness [1, 4] | Degree of sweetness ([1]; sensory test) | Degree of sweetness [3] |
| --- | --- | --- | --- | --- | --- |
|  | NC(CC(O)(CO)Cc1c[nH]c2ccccc12)C(=O)O (mixture of isomers) [Compound No. 3, (2S,4S)- and (2R,4R)-2-amino-4,5-dihydroxy-4-(3-indolylmethyl)pentanoic acid mixture] | about 1250 | About 1250 times | about 1250 times as high as that of sugar |  |
|  | NC(CC(O)(CO)Cc1c[nH]c2ccccc12)C(=O)O (mixture of isomers) [Compound No. 4, (2S,4R)- and (2R,4S)-2-amino-4,5-dihydroxy-4-(3-indolylmethyl)pentanoic acid mixture] | about 750 | About 750 times |  |  |
|  | N[C@H](C[C@H](Cc1c[nH]c2ccccc12)C(=O)O)C(=O)O [Compound No. 1, (2R,4S)-2-amino-4-(3-indolyl)methyl pentandioic acid] | about 200 | About 200 times |  |  |
|  | Cc1ccc2c(CC(O)(C[C@H](N)C(=O)O)C(=O)O)c[nH]c2c1 (stereo partly drawn) [Compound No. 2, 4-hydroxy-4-(6-methylindole-3-ylmethyl)glutamic acid] | about 650 | About 650 times |  |  |
|  | CC(O)(Cc1c[nH]c2ccccc12)CC(N)C(=O)O (stereo not drawn) [Compound No. 5, 2-amino-4-hydroxy-4-(3-indolylmethyl)pentanoic acid] | about 900 | About 900 times |  |  |
|  | CCC(O)(Cc1c[nH]c2ccccc12)CC(N)C(=O)O (stereo not drawn) [Compound No. 6, 2-amino-4-hydroxy-4-(3-indolylmethyl)hexanoic acid] | about 500 | About 500 times |  |  |
|  | CNC(=O)[C@@](O)(Cc1c[nH]c2ccccc12)C[C@@H](N)C(=O)O [Compound No. 7, (2R,4R)-2-amino-4-hydroxy-4-methylcarbamoyl-4-(3-indolylmethyl)butyric acid] | about 200 | About 200 times |  |  |
| ~97 | CCNC(=O)[C@@](O)(Cc1c[nH]c2ccccc12)C[C@@H](N)C(=O)O [Compound No. 8, (2R,4R)-2-amino-4-hydroxy-4-ethylcarbamoyl-4-(3-indolylmethyl)butyric acid] | about 1600 | About 1600 times | about 1600 times as high as that of sugar |  |
| ~35 | COC(=O)[C@H](Cc1ccccc1)NC(=O)[C@@H](N)CC(=O)O [aspartame, reference compound] (H-Asp-Phe-OMe) |  |  |  |  |
|  | N[C@@H](C[C@@](O)(Cc1c[nH]c2ccccc12)C(=O)O)C(=O)O [monatin, (2S,4S)-2-amino-4-carboxy-4-hydroxy-5-(3-indolyl)pentanoic acid] |  |  |  | 800 times of sucrose and 1400 times of sucrose |
